System: genes related to myelination; myelination and myelin sheath pathway
Assay: gene expression and KEGG pathway analysis of brain samples, cross-fostering to St6Gal1 KO dams
Type: in vivo, mice
Details: presence in maternal milk, especially during early life
Description: Adult wild-type (WT) B6.129 and heterozygous (HZ) B6.129-St6gal1^tm2Jxm breeding pairs (four males and four females and three males and four females, respectively) were purchased from a commercial breeder (The Jackson Laboratory). Upon arrival, same-sex mice were housed in same-sex groups of 2-3 in type-1 polycarbonate cages (33.0×13.0×14.0 cm) equipped with sawdust bedding, an enrichment bag (Mucedola, Settimo Milanese, Italy), metal top and ad libitum water and food pellets (Mucedola, Settimo Milanese, Italy). Mice were maintained on a reversed 12-h-light-dark cycle (light on at 7:00 PM) in an air-conditioned room (temperature 21±1° C. and relative humidity 60±10%). Two weeks after arrival, breeding triads (one male, two females) were formed. After two weeks of mating, male mice were removed and females were housed individually in standard type-1 cages. Females were checked daily for delivery and the day in which they gave birth was designated as postnatal day (PND) 0. […]
Quantification is performed using Quant It Ribogreen assay (Life Technologies) QC assessment is performed using Standard sensitivity RNA kit on Fragment Analyzer 96 (Agilent). […]
Library generation starts with oligodT priming containing the Illumina-specific Read 2 linker sequence. […] The random primer contains the Illumina-specific Read 1 linker sequence. […]

SMILES: CC(=O)N[C@H]1[C@H]([C@H](O)[C@H](O)CO)O[C@@](OC[C@H]2O[C@@H](O[C@H]3[C@H](O)[C@@H](O)[C@H](O)O[C@@H]3CO)[C@H](O)[C@@H](O)[C@H]2O)(C(=O)O)C[C@@H]1O [6′-SL, 6′-sialyllactose]
- optimal myelination of the prefrontal cortex: necessary

— patent US12458052B2, “Human milk oligosaccharides for use in enhancing executive function” (Glycom A/S, priority 2019, dated 2025)
